For series [1], the target named is T1, VEGFR2 (Homo sapiens, UniProt P35968).
T1 construct: host or cells: HEK293 (VEGFR2/NFAT Reporter recombinant cell line)
Kind of series: VEGFR2/NFAT Reporter HEK293 luciferase assay of VEGF signaling. Particulars: VEGFR2-HEK cells; for IC50: 20 ng/ml VEGF165; for Dark/Light: ratio of IC50 dark to IC50 light. Format: cell-based. The method, then:
We have cultured the cells and conducted the measurements according to the manufacturer's instructions.
On the day preceding the measurement, 40 000 recombinant HEK cells were seeded into each well of a 96 well plate in a way that the experiments could be conducted in triplicates. […] For the conditions requiring irradiation, the plate was placed under a cold white LED light source within the incubator (37° C., 5% CO2) for the first 10 minutes of the 1-hour-long incubation with the inhibitors to imitate day-light, while the other plate was kept in the dark (also at 37° C., 5% CO2). Following the pre-incubation with inhibitors we treated the cells for 4 hours with VEGF without removing the inhibitors. For this purpose we used 20 ng/ml of commercially available human VEGF165 (Sf9 derived, from BPS BioScience Inc., Cat. No.: 91001-1) added directly into the cell-culture medium.
The IC50 values were calculated using the GraphPad Prism software.

For series [2], the system named is human retinal microvascular endothelial cells (HRMEC). Kind of series: tubulogenesis (in vitro angiogenesis) assay, number of meshes. The note with it: for IC50 / Dark/Light: HRMEC tubulogenesis; for Dark/Light: ratio of IC50 dark to IC50 light. Format: cell-based. The source says: These cells preserve their endothelial nature, and when cultured on an appropriate extracellular matrix, they spontaneously form a network that corresponds to a network of capillaries. Images of such networks taken with a microscope can be quantified, and several parameters (such as the number of segments, number of closed loops, number of junction points) of the network can be quantified and used as a parameter describing the angiogenesis in vitro [Staton et al., 2009].
The inventors have applied their proprietary azidated inhibitors described in the present patent in an ascending series of concentrations. For all the said azidated inhibitors, the in vitro angiogenesis experiments were carried out both in complete darkness and in defined illumination conditions. The number of closed loops (number of meshes) was identified using an image recognition algorithm, and an IC50 curve was fitted onto the number of meshes plotted against substance concentration. […] These experiments thus provided further proof, that light increases the inhibitory potential of the novel azidated compounds described in the present patent.
In vitro angiogenesis (hereinafter referred to as “tubulogenesis”) mimicks several features of angiogenetic processes observed in vivo in vertebrate animals [Staton et al., 2009] and is based on the VEGF-dependent self-organizing capacity of endothelial cells via which tube-like structures emerge that share many properties with in vivo observed blood vessels. Therefore, the inhibitory potential of the newly synthetized molecules of the present invention was also assessed in tubulogenesis assay using human retinal microvascular endothelial cells (HRMEC) derived from post mortem human donors. When seeded onto a collagen and laminin containing matrix, HRMEC spontaneously form a two-dimensional blood-vessel-like network displaying several quantifiable features that can be used to measure angiogenic potential [Staton et al., 2009]. The newly synthetized, PMO-containing VEGFR inhibitors were added to the culture medium in increasing concentrations to test whether they can inhibit the spontaneous formation of the network from HRMEC. The increasing concentrations allowed the inventors to calculate the IC50 values for each inhibitor molecule. The results of these experiments (table 2.) have shown that the new, PMO-containing azidated inhibitors were capable of inhibiting the tubulogenesis. Furthermore, in the presence of light, the inhibition was stronger than in the dark, providing evidence for the photoactivation and the concomitant covalent binding of the azidated inhibitors to their target receptors.
To test the inhibitory effect of the compounds with light and without light on tubulogenesis [Staton et al., 2009], we have used human retinal microvascular endothelial cells (HRMEC) from Cell Systems (Kirkland, WA 98033, cat. N^o: ACBRI 181). VEGF165 (Invitrogen) was only used as a positive control in these experiments, otherwise tubulogenesis relied on endogenous VEGF produced by the culture.
Assays were performed in a 96-well cell culture plate (Biologix). The basement membrane matrix Geltrex (Invitrogen) was thawed on ice overnight before use. 50 μl Geltrex was added to each well with a chilled pipette, then the plate was centrifuged at 2000 rpm for 10 min at 4° C. Subsequently the matrix was let solidify in a humidified incubator at 37° C. for at least 30 minutes. Before seeding, HRMEC cells were treated with compounds (0.1 nM-10 μM) in EBM-2 medium (Lonza) in the dark. After 5 minutes, 100 μl of suspension of treated cells was seeded into each Geltrex-coated well of the plate at a density of 10^3 cells/well and then exposed to light treatment (cold white LED light) for 10 min at 37° C. and 5% CO2 or kept in the dark (control plate) in the incubator during light treatment. Subsequently both the irradiated and the control plates were left in the incubator for 12 hours so that the tubulogenesis can proceed. […]

Series [3] relates to neovascular AMD. Particulars: oral, phase I, patients; cited from earlier work.
In series [4] the test system is neovascular AMD. Particulars: oral, phase II, trial prematurely stopped; cited from earlier work.
Setting [5] is: cold white LED light for the first 10 min of 1 h pre-incubation, read-out: IC50 Light.
Where [6] appears, read: kept in the dark, read-out: IC50 Dark.
Setting [7] is: Homo sapiens, HRMEC, 10 min, cold white LED light 10 min, no Ko-143, read-out: IC50 Light.
The mark [8] stands for this setting: Homo sapiens, HRMEC, dark, no Ko-143, read-out: IC50 Dark.

Values joined by “and” are separate entries in the source; they are usually repeats but may differ in a detail not shown here. Equal entries are not always repeated. “Also recorded” adds a separate entry of the source. Where two headings read alike, the source gives them in different places.

The values that follow come from patent US20260165956A1, “IN VIVO TARGETING OF THERAPEUTIC MOLECULES TO THE RETINA VIA THE OPTICAL SYSTEM OF THE EYE” (SEMMELWEIS EGYETEM, priority 2022, published 2026).

Usually IC50 stands for the concentration that inhibits the measured activity by half.

T1 sequence (P35968 20-1356): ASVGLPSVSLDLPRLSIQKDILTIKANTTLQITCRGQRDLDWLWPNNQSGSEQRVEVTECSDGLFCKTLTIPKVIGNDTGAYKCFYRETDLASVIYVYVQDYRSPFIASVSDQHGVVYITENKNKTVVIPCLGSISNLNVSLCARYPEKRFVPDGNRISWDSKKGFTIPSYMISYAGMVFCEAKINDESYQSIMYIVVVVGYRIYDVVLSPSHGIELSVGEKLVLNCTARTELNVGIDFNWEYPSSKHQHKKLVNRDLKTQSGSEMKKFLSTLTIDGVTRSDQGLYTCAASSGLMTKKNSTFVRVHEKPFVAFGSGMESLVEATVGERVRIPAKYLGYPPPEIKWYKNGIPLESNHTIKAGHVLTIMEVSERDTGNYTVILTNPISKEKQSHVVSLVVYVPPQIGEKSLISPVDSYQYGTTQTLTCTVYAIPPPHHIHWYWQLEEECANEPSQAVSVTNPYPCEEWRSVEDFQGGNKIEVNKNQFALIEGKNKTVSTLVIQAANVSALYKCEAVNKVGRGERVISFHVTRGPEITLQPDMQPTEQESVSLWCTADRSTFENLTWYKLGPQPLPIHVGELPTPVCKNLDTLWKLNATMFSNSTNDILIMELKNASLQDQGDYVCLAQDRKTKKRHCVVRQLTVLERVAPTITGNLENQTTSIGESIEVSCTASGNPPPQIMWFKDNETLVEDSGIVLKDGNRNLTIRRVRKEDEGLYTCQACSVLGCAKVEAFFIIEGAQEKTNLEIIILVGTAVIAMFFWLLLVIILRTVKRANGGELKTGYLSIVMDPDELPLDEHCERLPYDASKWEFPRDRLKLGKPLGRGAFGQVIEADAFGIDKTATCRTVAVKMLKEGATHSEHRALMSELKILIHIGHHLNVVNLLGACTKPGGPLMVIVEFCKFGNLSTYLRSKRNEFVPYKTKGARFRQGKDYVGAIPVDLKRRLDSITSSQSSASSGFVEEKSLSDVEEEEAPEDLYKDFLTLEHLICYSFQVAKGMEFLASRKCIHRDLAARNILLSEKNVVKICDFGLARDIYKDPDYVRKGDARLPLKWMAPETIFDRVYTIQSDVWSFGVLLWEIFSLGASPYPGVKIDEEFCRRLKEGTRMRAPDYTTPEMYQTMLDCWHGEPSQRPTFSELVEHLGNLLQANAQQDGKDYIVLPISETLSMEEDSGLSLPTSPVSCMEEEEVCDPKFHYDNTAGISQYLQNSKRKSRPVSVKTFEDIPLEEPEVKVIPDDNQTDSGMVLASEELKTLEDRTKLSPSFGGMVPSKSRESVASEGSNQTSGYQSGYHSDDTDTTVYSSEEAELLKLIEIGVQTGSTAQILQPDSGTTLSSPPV

Regarding `CCN(CC)CCNC(=O)c1c(C)[nH]c(/C=C2\C(=O)Nc3cc(Br)c(N=[N+]=[N-])cc32)c1C` [5-defluoro-5-azido-6-bromo-sunitinib (6), 5-defluoro-5-azido-6-bromo-sunitinib], the IC50 in series [1] (setting [5]) is 3.5 nM; in series [1] (setting [6]) it was 60.4 nM and 60.7 nM. In series [1], the Dark/Light came to 17.25.

In the case of `CCN(CC)CCNC(=O)c1c(C)[nH]c(/C=C2\C(=O)Nc3cc(Cl)c(N=[N+]=[N-])cc32)c1C` [5-defluoro-5-azido-6-chloro-sunitinib], the IC50 in series [1] (setting [5]) turned out to be 2.23 nM; in series [1] (setting [6]), 40.4 nM; in series [2] (setting [7]), 168 nM; in series [2] (setting [8]) it was 655 nM. Besides, the Dark/Light in series [1] was 18.12; in series [2] (no Ko-143), 3.48.

In the case of `Cc1[nH]c(/C=C2\C(=O)Nc3cc(Cl)c(N=[N+]=[N-])cc32)c(C)c1C(=O)N[C@H]1CCN(C(=O)N(C)C)C1` [5-defluoro-5-azido-6-chloro-vorolanib], the IC50 amounted to 0.921 nM in series [1] (setting [5]); 57.8 nM in series [1] (setting [6]); 173 nM in series [2] (cold white LED light 10 min, 500 nM of Ko-143 in the medium, read-out: IC50 Light); 135 nM in series [2] (Homo sapiens, HRMEC, 10 min, cold white LED light 10 min, 500 nM of Ko-143 in the medium, read-out: IC50 Light). For the same compound, the Dark/Light in series [1] is on record as 62.80; in series [2] (500 nM of Ko-143) it was 3.97.

With `CCN(CC)CCNC(=O)c1c(C)[nH]c(/C=C2\C(=O)Nc3cc(F)c(N=[N+]=[N-])cc32)c1C` [5-defluoro-5-azido-6-fluoro-sunitinib], the figures for the IC50 in series [1] (setting [5]) and in series [1] (setting [6]) were 8.86 nM and 69 nM, respectively. Also, in series [1], the Dark/Light is 7.79.

Consider `CCN(CC)CCNC(=O)c1c(C)[nH]c(/C=C2\C(=O)Nc3ccc(N=[N+]=[N-])cc32)c1C` [5-defluoro-5-azido-sunitinib (1), 5-defluoro-5-azido-sunitinib], for which the concentration for half-maximal inhibition (IC50) worked out at 36.8 nM in series [1] (setting [5]), 263 nM in series [1] (setting [6]), 951 nM in series [2] (setting [7]) and 3540 nM in series [2] (setting [8]). The values for the Dark/Light in series [1] and in series [2] (no Ko-143) were 7.136 and 3.72, respectively.

Consider `CCN(CC)CCNC(=O)c1c(C)[nH]c(/C=C2\C(=O)Nc3cc(N=[N+]=[N-])ccc32)c1C` [5-defluoro-6-azido-sunitinib (2), 5-defluoro-6-azido-sunitinib], for which the half-inhibitory concentration (IC50) was 9.3 nM in series [1] (setting [5]), 93.7 nM in series [1] (setting [6]), 432 nM in series [2] (setting [7]) and 1090 nM in series [2] (setting [8]). The Dark/Light in series [1] is recorded as 10.074; in series [2] (no Ko-143), 2.52.

Take `Cc1[nH]c(/C=C2\C(=O)Nc3cc(N=[N+]=[N-])ccc32)c(C)c1C(=O)N[C@H]1CCN(C(=O)N(C)C)C1` [5-defluoro-6-azido-vorolanib (7), 5-defluoro-6-azido-vorolanib]: the IC50 in series [1] (setting [5]) is 10.1 nM; in series [1] (setting [6]), 53.4 nM. Moreover, the Dark/Light in series [1] came to 5.29.

In the case of `CCN(CC)CCNC(=O)c1c(C)[nH]c(/C=C2\C(=O)Nc3cc(N=[N+]=[N-])c(F)cc32)c1C` [6-azido-sunitinib (3), 6-azido-sunitinib], the IC50 in series [1] (setting [5]) was 11.7 nM; in series [1] (setting [6]), 53.2 nM; in series [2] (setting [7]), 87 nM; in series [2] (setting [8]), 228 nM. For the same compound, the Dark/Light is given as 4.57 in series [1] and 2.62 in series [2] (no Ko-143).

Take `COc1ccc2c3c([nH]c2c1)[C@H](CC(C)C)N1C(=O)[C@H](CCC(=O)OC(C)(C)C)NC(=O)[C@@H]1C3` [Ko-143, reference compound]: the effect on tubulogenesis result in series [2] (result in words) was “no effect”.

`Cc1[nH]c(/C=C2\C(=O)Nc3ccc(F)cc32)c(C)c1C(=O)N[C@H]1CCN(C(=O)N(C)C)C1` [vorolanib]: in series [3], the “efficacy against neovascular AMD” value is listed as “effective”. For the same compound, the adverse effects result in series [4] was “hepatobiliary and gastrointestinal adverse effects; also recorded: intolerable levels of side effects”.
